What was measured:
[1] = target: T1, E3 ubiquitin-protein ligase Mdm2 (Homo sapiens, UniProt Q00987); experiment: Inhibition of MDM2 (unknown origin) by Fluorescence polarization assay
[2] = target: T1, E3 ubiquitin-protein ligase Mdm2; experiment: Binding affinity to MDM2 (unknown origin) by surface plasmon resonance analysis

T1 sequence (Q00987 whole entry): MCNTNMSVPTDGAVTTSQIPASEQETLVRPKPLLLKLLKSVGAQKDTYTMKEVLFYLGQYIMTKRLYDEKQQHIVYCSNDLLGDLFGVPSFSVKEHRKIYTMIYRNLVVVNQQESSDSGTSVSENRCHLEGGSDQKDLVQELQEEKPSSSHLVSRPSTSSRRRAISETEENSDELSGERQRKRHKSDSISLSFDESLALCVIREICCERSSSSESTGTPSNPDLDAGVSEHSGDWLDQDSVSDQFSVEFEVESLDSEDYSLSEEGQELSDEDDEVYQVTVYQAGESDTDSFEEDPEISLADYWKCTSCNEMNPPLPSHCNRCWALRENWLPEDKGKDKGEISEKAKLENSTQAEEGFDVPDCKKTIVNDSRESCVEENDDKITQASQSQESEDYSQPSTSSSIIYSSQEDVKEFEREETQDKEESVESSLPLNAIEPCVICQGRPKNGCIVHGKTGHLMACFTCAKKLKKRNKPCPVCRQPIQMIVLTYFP

IC50 [1]: 0.6 µM | Kd [2]: 5.5 µM
Compound: CN1CCC(=O)NCCSCCS(=O)(=O)CCN(Cc2ccc(C#N)cc2)CC(=O)N[C@@H](Cc2cc3ccc(Cl)cc3[nH]2)C1=O

— ChEMBL document CHEMBL5108037, “Cyclic Peptide Screening Methods for Preclinical Drug Discovery” (J Med Chem, 2022)
